{"source": "patent US20040229230A1", "about": "“Method for gene isolation by Cre-trap cloning” (priority 2002, published 2004)", "key": {"[1]": {"system": "parent BW cell line (BW5147 murine thymoma)", "experiment": "Culture of parent BW cell line in ganciclovir (HSVTK activity assessment)", "format": "cell-based", "settings": "5 μM ganciclovir; parent BW cell line without HSVTK", "description": "(§1) BW subclones with varying levels of GFPCre expression were tested for functional Cre recombinase and HSVTK activity. The pCT.1 (pCT.1^AMP) vector was transiently transfected into each cell line followed by recovery and analysis of plasmid configuration (pCT.1^AMP vs. pCT.1^CAT). Maximal conversion would result in equimolar ratios of pCT.1^AMP and pCT.1^CAT due to the reversible nature of the reaction. […] The kinetics of conversion in cell lines expressing different levels of GFPCre was evaluated. To assess HSVTK activity, all of the cell lines were cultured in 5 μM ganciclovir. […] No spontaneous revertants were isolated, which, given the culture conditions, puts the spontaneous reversion rate at <10^−8."}, "[2]": {"system": "GFPCre:IRES:HSVTK expressing clones (BW5147 subclones)", "experiment": "Culture of GFPCre:IRES:HSVTK expressing BW clones in ganciclovir (HSVTK activity assessment)", "format": "cell-based, murine", "settings": "5 μM ganciclovir", "description": "2.1 GFPCre:IRES:HSVTK cassette function: A retroviral vector was generated with the cDNA encoding the GFPCre fusion protein followed by an […] ribosomal entry site (IRES) and the cDNA encoding HSVTK (FIG. 2). In addition, the upstream activating sequence (UAS) which binds the Gal4 transcriptional trans-activator was cloned upstream of the GFPCre cDNA (FIG. 2). The BW5147 thymoma was infected with this retrovirus, and subclones (BW-1, 5, 41 and 50) expressing different levels of the GFPCre fusion protein were identified by flow cytometry (FIG. 3).\nas §1"}}, "data": [{"smiles": "Nc1nc(O)c2ncn(COC(CO)CO)c2n1", "note": "[ganciclovir]", "values": [{"measurement": "growth in media with ganciclovir", "setting": "[1]", "result": "normal growth"}, {"measurement": "growth/survival in media with ganciclovir", "setting": "[2]", "result": "all died"}]}]}
